Test results: PMC12396409, “Screening and hit evaluation of a microbial metabolite library against the pathogenic Plasmodium falciparum and Toxoplasma gondii parasites” (International Journal for Parasitology: Drugs and Drug …, 2025)
Read-outs that look alike come from different tables or passages of the source.

What was measured:
[1] = system: P. falciparum 3D7 parasites; assay: P. falciparum growth inhibition assay, 1-cycle (72 h treatment), SYBR DNA staining (library screen at 2 μg/mL and dose-response); assay type: cell-based, Plasmodium falciparum; details: for activity at 2 µg/mL: Plasmodium falciparum
[2] = system: P. falciparum 3D7 parasites; assay: P. falciparum growth inhibition assay, 2-cycle (120 h treatment), delayed-death screen and dose-response; assay type: cell-based, Plasmodium falciparum; details: for activity at 2 µg/mL: Plasmodium falciparum
[3] = system: T. gondii RH strain (RH-Tub-eYFP) tachyzoites; assay: microbe, parasite or virus in culture; assay type: cell-based, Toxoplasma gondii; details: 72 h; for percent parasite growth at 2 µg/mL: Toxoplasma gondii
[4] = P. falciparum, 72 h, screen at 2 μg/mL, replicate 1
[5] = P. falciparum, 72 h, screen at 2 μg/mL, replicate 2
[6] = P. falciparum, 120 h, screen at 2 μg/mL, replicate 1
[7] = P. falciparum, 120 h, screen at 2 μg/mL, replicate 2
[8] = T. gondii, screen at 2 μg/mL, replicate 1
[9] = T. gondii, screen at 2 μg/mL, replicate 2
[10] = 3D7, P. falciparum, 72 h, screen at 2 μg/mL, replicate 1, read-out: Pf_72h_%Growth_Rep1
[11] = 3D7, P. falciparum, 72 h, screen at 2 μg/mL, replicate 2, read-out: Pf_72h_%Growth_Rep2
[12] = 3D7, P. falciparum, 120 h, screen at 2 μg/mL, replicate 1, read-out: Pf_120h_%Growth_Rep1
[13] = 3D7, P. falciparum, 120 h, screen at 2 μg/mL, replicate 2, read-out: Pf_120h_%Growth_Rep2
[14] = T. gondii, screen at 2 μg/mL, replicate 1, read-out: Tg_72h_%Growth_Rep1
[15] = T. gondii, screen at 2 μg/mL, replicate 2, read-out: Tg_72h_%Growth_Rep2
[16] = library screen at 2 μg/mL, 72 h, % growth, replicate 1
[17] = library screen at 2 μg/mL, 72 h, % growth, replicate 2
[18] = library screen at 2 μg/mL, 120 h, % growth, replicate 1
[19] = library screen at 2 μg/mL, 120 h, % growth, replicate 2
[20] = library screen at 2 μg/mL, % growth, replicate 1
[21] = library screen at 2 μg/mL, % growth, replicate 2

**Q.** How did the Pf_72h_%Growth_Rep1 [1, 4] turn out when C/C=C/C[C@@H](C)[C@@H](O)[C@H]1C(=O)N[C@@H](C(C)C)C(=O)N(C)CC(=O)N(C)[C@@H](CC(C)C)C(=O)N[C@@H](C(C)C)C(=O)N(C)[C@@H](CC(C)C)C(=O)N[C@@H](C)C(=O)N[C@H](C)C(=O)N(C)[C@@H](CC(C)C)C(=O)N(C)[C@@H](CC(C)C)C(=O)N(C)[C@@H](C(C)C)C(=O)N1C [Cyclosporin D] was run?
**A.** The Pf_72h_%Growth_Rep1 was 1.31%.

**Q.** What about the Pf_72h_%Growth_Rep2 [1, 5] of the same compound?
**A.** Its Pf_72h_%Growth_Rep2 is 3.21%.

**Q.** What about the Pf_120h_%Growth_Rep1 [2, 6] of the same compound?
**A.** Its Pf_120h_%Growth_Rep1 is -2.52%.

**Q.** What about the Pf_120h_%Growth_Rep2 [2, 7] of the same compound?
**A.** The Pf_120h_%Growth_Rep2 was -5.39%.

**Q.** What about the Tg_72h_%Growth_Rep1 [3, 8] of the same compound?
**A.** The Tg_72h_%Growth_Rep1 was 61.91%.

**Q.** What about the Tg_72h_%Growth_Rep2 [3, 9] of the same compound?
**A.** Its Tg_72h_%Growth_Rep2 is 54.60%.

**Q.** With CN1C(=O)c2ccccc2NC(=O)/C1=C/c1ccccc1 [Dehydrocyclopeptine] as the compound, how does the Pf_72h_%Growth_Rep1 [1, 4] read?
**A.** Its Pf_72h_%Growth_Rep1 is 83.17%.

**Q.** What about the Pf_72h_%Growth_Rep2 [1, 5] of the same compound?
**A.** Its Pf_72h_%Growth_Rep2 is 27.60%.

**Q.** And the Pf_120h_%Growth_Rep1 [2, 6]?
**A.** Its Pf_120h_%Growth_Rep1 is 82.86%.

**Q.** What about the Pf_120h_%Growth_Rep2 [2, 7] of the same compound?
**A.** The Pf_120h_%Growth_Rep2 was 97.23%.

**Q.** What about the Tg_72h_%Growth_Rep1 [3, 8] of the same compound?
**A.** Its Tg_72h_%Growth_Rep1 is 109.69%.

**Q.** And the Tg_72h_%Growth_Rep2 [3, 9]?
**A.** Its Tg_72h_%Growth_Rep2 is 83.37%.

**Q.** Which results are given for C=C[C@]1(C)C[C@@H](O)[C@]2(C)[C@H](C)CC[C@]3(CCC(=O)[C@H]32)[C@@H](C)[C@@H]1O [BIA-M1333]?
**A.** Pf_72h_%Growth_Rep1 ([1]; P. falciparum 3D7, 72 h, parasite screen at 2 μg/mL, % growth, replicate 1): 79.79%; Pf_72h_%Growth_Rep2 ([1]; P. falciparum 3D7, 72 h, parasite screen at 2 μg/mL, % growth, replicate 2): 96.77%; Pf_120h_%Growth_Rep1 ([2]; P. falciparum 3D7, 120 h, parasite screen at 2 μg/mL, % growth, replicate 1): 84.29%; Pf_120h_%Growth_Rep2 ([2]; P. falciparum 3D7, 120 h, parasite screen at 2 μg/mL, % growth, replicate 2): 105.61%; Tg_72h_%Growth_Rep1 ([3]; T. gondii, parasite screen at 2 μg/mL, % growth, replicate 1): 107.76%; Tg_72h_%Growth_Rep2 ([3]; T. gondii, parasite screen at 2 μg/mL, % growth, replicate 2): 90.41%

**Q.** C/C=C/C1=CC(=O)[C@@H](O)[C@@H]1O [Terrein] was tested. Which activity at 2 µg/mL [1, 10] did it give?
**A.** Its activity at 2 µg/mL is 77.7%.

**Q.** What about the activity at 2 µg/mL [1, 11] of the same compound?
**A.** Its activity at 2 µg/mL is 91.3%.

**Q.** What about the activity at 2 µg/mL [2, 12] of the same compound?
**A.** Its activity at 2 µg/mL is 82%.

**Q.** What about the activity at 2 µg/mL [2, 13] of the same compound?
**A.** The activity at 2 µg/mL was 46.1%.

**Q.** What about the percent parasite growth at 2 µg/mL [3, 14] of the same compound?
**A.** The percent parasite growth at 2 µg/mL was 125%.

**Q.** And the percent parasite growth at 2 µg/mL [3, 15]?
**A.** The percent parasite growth at 2 µg/mL was 83.6%.

**Q.** How did the activity at 2 µg/mL [1, 10] turn out when COc1c(OC/C=C(\C)CCC=C(C)C)ccc2ccc(=O)oc12 [Collinin] was run?
**A.** The activity at 2 µg/mL was 69.5%.

**Q.** And the activity at 2 µg/mL [1, 11]?
**A.** Its activity at 2 µg/mL is 86.1%.

**Q.** And the activity at 2 µg/mL [2, 12]?
**A.** The activity at 2 µg/mL was 60.9%.

**Q.** And the activity at 2 µg/mL [2, 13]?
**A.** The activity at 2 µg/mL was 78%.

**Q.** And the percent parasite growth at 2 µg/mL [3, 14]?
**A.** The percent parasite growth at 2 µg/mL was 77.5%.

**Q.** And the percent parasite growth at 2 µg/mL [3, 15]?
**A.** Its percent parasite growth at 2 µg/mL is 110%.

**Q.** What does the source list for COc1cc(-c2cc3c(c(=O)o2)C[C@]2(O)[C@@]4(C)C(=O)C=CC(C)(C)[C@]4(O)CC[C@@]2(C)O3)cc(OC)c1OC [Territrem B]?
**A.** activity at 2 µg/mL ([1]; 3D7, 72 h, P. falciparum, 72 h, screen at 2 μg/mL, replicate 1, read-out: Pf_72h_%Growth_Rep1): 63.6%; activity at 2 µg/mL ([1]; 3D7, 72 h, P. falciparum, 72 h, screen at 2 μg/mL, replicate 2, read-out: Pf_72h_%Growth_Rep2): 64.7%; activity at 2 µg/mL ([2]; 3D7, 120 h, P. falciparum, 120 h, screen at 2 μg/mL, replicate 1, read-out: Pf_120h_%Growth_Rep1): 148%; activity at 2 µg/mL ([2]; 3D7, 120 h, P. falciparum, 120 h, screen at 2 μg/mL, replicate 2, read-out: Pf_120h_%Growth_Rep2): 68.3%; percent parasite growth at 2 µg/mL [3, 14]: 89.7%; percent parasite growth at 2 µg/mL [3, 15]: 98.2%

**Q.** Cc1c2c(c(O)c3c(O)ccc(Cl)c13)C(=O)[C@]1(O)C(O)=C(C(N)=O)C(=O)[C@@H](N(C)C)[C@@H]1C2.Cl [Anhydrochlortetracycline hydrochloride] was tested. Which Pf_72h_%Growth_Rep1 [1, 16] did it give?
**A.** The Pf_72h_%Growth_Rep1 was 86.52%.

**Q.** What about the Pf_72h_%Growth_Rep2 [1, 17] of the same compound?
**A.** The Pf_72h_%Growth_Rep2 was 88.12%.

**Q.** What about the Pf_120h_%Growth_Rep1 [2, 18] of the same compound?
**A.** Its Pf_120h_%Growth_Rep1 is 62.00%.

**Q.** And the Pf_120h_%Growth_Rep2 [2, 19]?
**A.** The Pf_120h_%Growth_Rep2 was 93.26%.

**Q.** What about the Tg_72h_%Growth_Rep1 [3, 20] of the same compound?
**A.** The Tg_72h_%Growth_Rep1 was 107.44%.

**Q.** And the Tg_72h_%Growth_Rep2 [3, 21]?
**A.** The Tg_72h_%Growth_Rep2 was 94.77%.

**Q.** Which Pf_72h_%Growth_Rep1 [1, 16] does the source give for CC(C)=C[C@H]1C[C@H](C)[C@]2(CC[C@]3(C)C[C@@H]4C(C)=CC(=O)[C@H]4/C(C=O)=C\C[C@H]32)O1 [Anhydroepiophiobolin A] here?
**A.** Its Pf_72h_%Growth_Rep1 is 2.50%.

**Q.** What about the Pf_72h_%Growth_Rep2 [1, 17] of the same compound?
**A.** The Pf_72h_%Growth_Rep2 was 3.83%.

**Q.** What about the Pf_120h_%Growth_Rep1 [2, 18] of the same compound?
**A.** Its Pf_120h_%Growth_Rep1 is -5.12%.

**Q.** What about the Pf_120h_%Growth_Rep2 [2, 19] of the same compound?
**A.** Its Pf_120h_%Growth_Rep2 is 6.51%.

**Q.** And the Tg_72h_%Growth_Rep1 [3, 20]?
**A.** The Tg_72h_%Growth_Rep1 was 120.33%.

**Q.** What about the Tg_72h_%Growth_Rep2 [3, 21] of the same compound?
**A.** Its Tg_72h_%Growth_Rep2 is 104.77%.
